Measurements: patent US20100178243A1, “Novel method of stabilizing diagnostic and therapeutic compounds in a cationic carrier system” (MediGene AG, priority 2002, published 2010)

Test system: A-375 Melanoma
Assay: Therapeutic efficacy of LipoCam in A-375 melanoma of nude mice
Type: in vivo
Conditions: iv, three times a week for three weeks, equitoxic doses; s.c. A-375 tumors; FIG. 11
Description: NMRI-nude mice were purchased from Elevage Janvier and housed in isolated ventilated cages under save environmental conditions (SPF facility, 22° C., 30-70% humidity, 12 h light/dark cycle) with food and water ad libitum. Experimental design was reviewed and approved by local government.
Tumor cells (A-375 human melanoma cell line, ATCC Nr.: CRL-1619) were grown as described in the data sheet supplied by ATCC. Tumor cells (5×10^6 in PBS) were inoculated s.c. in the right dorsal flank of mice in a volume of 50 μl on day 0.
Mice were assigned to the experimental groups (8 animals per cage), housed and handled (including monitoring of the body weight gain) at least five days before tumor inoculation (=day −6 to 0). […] Equitoxic doses of the compounds were determined in separate experiments, where toxicity was evaluated based on haematological parameters, body weight and animal clinical observations. […]
Animals were clinically monitored during the whole experiment and for at least one week after treatment was finished. […] The tumor dimensions were measured by calliper and the tumor size was calculated according to the following formula: V=πLW^2/6 (L=greatest length, W=width of perpendicular axis). […] The number of red and white blood cells and platelets were determined using an automated cell counter (Abbott Cell Dyn 3500).

**Q.** With `CC[C@@](O)(C(=O)[O-])c1cc2n(c(=O)c1CO)Cc1cc3ccccc3nc1-2.[Na+]` [CPT-Na-Carboxylate] as the molecule, how does the “anti-tumor effect (in words)” value read?
**A.** only a retardation as compared to the control group
